Our source for the EC50 values is US10058550B2, “Methods of treating heart failure” (priority 2015, dated 2018).

For this experiment, the target named is human APJ receptor (Homo sapiens (Human), UniProt P35414). The experiment in a line: biochemical. It is filed as biochemical. As to conditions: read-out: Activity hAPJ SPA EC50 IP. In short, it runs like this:
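Agonist-stimulated [35S]GTPγS (0.2 nM) binding was read by SPA after 90 min at room temperature. Buffer: 20 mM HEPES pH 7.5 with 5 mM MgCl2, 200 mM NaCl, 3 μM GDP, 0.1% BSA; membranes were from a stable human APJ CHO line. EC50 values are averages of independent runs, fitted by non-linear regression.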

human APJ receptor, sequence (P35414 whole entry): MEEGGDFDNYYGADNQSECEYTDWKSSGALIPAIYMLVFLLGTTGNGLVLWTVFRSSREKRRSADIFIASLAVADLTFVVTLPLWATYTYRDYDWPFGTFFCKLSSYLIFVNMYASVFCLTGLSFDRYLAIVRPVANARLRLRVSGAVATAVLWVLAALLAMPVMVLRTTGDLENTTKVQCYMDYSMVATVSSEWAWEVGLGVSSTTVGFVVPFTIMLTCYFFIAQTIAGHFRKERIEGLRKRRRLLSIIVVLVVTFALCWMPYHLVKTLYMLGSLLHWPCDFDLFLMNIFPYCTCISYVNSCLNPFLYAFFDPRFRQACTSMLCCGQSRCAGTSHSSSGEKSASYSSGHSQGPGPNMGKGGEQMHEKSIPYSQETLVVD

For `COc1cccc(OC)c1-n1c(NS(=O)(=O)CCN2C(=O)N(C)CC[C@@H]2C)nnc1-c1cncc(C)c1` [Example 201.0, N-(4-(2,6-dimethoxyphenyl)-5-(5-methyl-3-pyridinyl)-4H-1,2,4-triazol-3-yl)-2-((6S)-3,6-dimethyl-2-oxotetrahydro-1(2H)-pyrimidinyl)ethanesulfonamide], the concentration giving a half-maximal response (EC50) was found to be 2.5 nM.
As for `COc1cccc(-c2nnc(NS(=O)(=O)CCc3ccc(F)cc3C#N)n2-c2c(OC)ncnc2OC)n1` [Example 204.0, 2-(2-cyano-4-fluorophenyl)-N-(4-(4,6-dimethoxy-5-pyrimidinyl)-5-(6-methoxy-2-pyridinyl)-4H-1,2,4-triazol-3-yl)ethanesulfonamide], the figure is 1.5 nM; as for `CCNC(=O)c1cccc(-c2nnc(NS(=O)(=O)[C@@H](C)Cc3ncc(F)cn3)n2-c2c(OC)cccc2OC)n1` [Example 229.0, 6-(4-(2,6-dimethoxyphenyl)-5-((((1S)-2-(5-fluoro-2-pyrimidinyl)-1-methylethyl)sulfonyl)amino)-4H-1,2,4-triazol-3-yl)-N-ethyl-2-pyridinecarboxamide, 6-(4-(2,6-dimethoxyphenyl)-5-((((1R)-2-(5-fluoro-2-pyrimidinyl)-1-methylethyl)sulfonyl)amino)-4H-1,2,4-triazol-3-yl)-N-ethyl-2-pyridinecarboxamide], 6.3 nM.
The result for `COc1cccc(OC)c1-n1c(NS(=O)(=O)[C@@H](C)[C@H](OC)c2ncccn2)nnc1-c1cncc(C)c1` [Example 250.0, (1R,2S)-N-(4-(2,6-dimethoxyphenyl)-5-(5-methyl-3-pyridinyl)-4H-1,2,4-triazol-3-yl)-1-methoxy-1-(2-pyrimidinyl)-2-propanesulfonamide] reads 2.8 nM.
The result for `COc1cccc(-c2nnc(NS(=O)(=O)[C@@H](C)[C@H](C)c3ncc(C)cn3)n2-c2c(OC)cccc2OC)n1` [Example 313.0, (2S,3R)—N-(4-(2,6-dimethoxyphenyl)-5-(6-methoxy-2-pyridinyl)-4H-1,2,4-triazol-3-yl)-3-(5-methyl-2-pyrimidinyl)-2-butanesulfonamide] reads 0.3 nM; that for `COc1cccc(-c2nnc(NS(=O)(=O)[C@H](C)[C@@H](C)c3ncc(C)cn3)n2-c2c(OC)cccc2OC)n1` [Example 314.0, (2R,3S)—N-(4-(2,6-dimethoxyphenyl)-5-(6-methoxy-2-pyridinyl)-4H-1,2,4-triazol-3-yl)-3-(5-methyl-2-pyrimidinyl)-2-butanesulfonamide], 3.4 nM.
As for `COc1cccc(OC)c1-n1c(NS(=O)(=O)CCc2ccc(Cl)cc2)nnc1-c1ccccn1` [Example 368.0, 2-(4-chlorophenyl)-N-(4-(2,6-dimethoxyphenyl)-5-(2-pyridinyl)-4H-1,2,4-triazol-3-yl)ethanesulfonamide], the half-maximal effective concentration (EC50) was 59 nM.
As for `COc1cccc(OC)c1-n1c(NS(=O)(=O)CCc2ccc(Cl)cc2)nnc1-c1cccnc1` [Example 369.0, 2-(4-chlorophenyl)-N-(4-(2,6-dimethoxyphenyl)-5-(3-pyridinyl)-4H-1,2,4-triazol-3-yl)ethanesulfonamide], the figure is 16 nM; as for `COc1cccc(OC)c1-n1c(NS(=O)(=O)N[C@@H](C)c2ncc(F)cn2)nnc1-c1cncc(C)c1` [Example 392.0], 48 nM.
With `CCO[C@H](c1ncc(Cl)cn1)[C@H](C)S(=O)(=O)Nc1nnc(-c2cncc(C)c2)n1-c1c(OC)cccc1OC` [Example 429.0, (1R,2S)-1-(5-chloropyrimidin-2-yl)-N-(4-(2,6-dimethoxyphenyl)-5-(5-methylpyridin-3-yl)-4H-1,2,4-triazol-3-yl)-1-ethoxypropane-2-sulfonamide], the 50% effective concentration (EC50) came to 0.27 nM.
The result for `COc1cccc(OC)c1-n1c(NS(=O)(=O)[C@@H](C)[C@H](C)c2ncc(F)cn2)nnc1-c1cccc(C)n1` [Example 453.0, (2S,3R)—N-(4-(2,6-dimethoxyphenyl)-5-(6-methyl-2-pyridinyl)-4H-1,2,4-triazol-3-yl)-3-(5-fluoro-2-pyrimidinyl)-2-butanesulfonamide] reads 0.6 nM; that for `COc1cccc(OC)c1-n1c(NS(=O)(=O)[C@@H](C)[C@H](C)c2ncc(F)cn2)nnc1-c1cccc(Cl)n1` [Example 454.0, (2S,3R)—N-(5-(6-chloro-2-pyridinyl)-4-(2,6-dimethoxyphenyl)-4H-1,2,4-triazol-3-yl)-3-(5-fluoro-2-pyrimidinyl)-2-butanesulfonamide], 0.84 nM.
As for `COc1cccc(OC)c1-n1c(NS(=O)(=O)[C@@H](C)[C@H](C)c2ncc(F)cn2)nnc1-c1cccc(-c2ccccc2)n1` [Example 455.0, (2S,3R)—N-(4-(2,6-dimethoxyphenyl)-5-(6-phenyl-2-pyridinyl)-4H-1,2,4-triazol-3-yl)-3-(5-fluoro-2-pyrimidinyl)-2-butanesulfonamide], the figure is 4.9 nM; as for `COc1cccc(OC)c1-n1c(NS(=O)(=O)CCN2C(=O)N(C)CC[C@H]2C)nnc1-c1cncc(C)c1` [Example 460.0, N-(4-(2,6-dimethoxyphenyl)-5-(5-methyl-3-pyridinyl)-4H-1,2,4-triazol-3-yl)-2-((6R)-3,6-dimethyl-2-oxotetrahydro-1(2H)-pyrimidinyl)ethanesulfonamide], 9.7 nM; as for `COc1cccc(OC)c1-n1c(NS(=O)(=O)CCc2ccc(F)cc2C#N)nnc1-c1cccc(=O)[nH]1` [Example 461.0, 2-(2-cyano-4-fluorophenyl)-N-(4-(2,6-dimethoxyphenyl)-5-(6-oxo-1,6-dihydro-2-pyridinyl)-4H-1,2,4-triazol-3-yl)ethanesulfonamide], 670 nM.
As for `COc1cccc(OC)c1-n1c(NS(=O)(=O)/C(C)=C(\C)c2ncc(F)cn2)nnc1-c1cncc(C)c1` [Example 504.0, (2E)-N-(4-(2,6-dimethoxyphenyl)-5-(5-methyl-3-pyridinyl)-4H-1,2,4-triazol-3-yl)-3-(5-fluoro-2-pyrimidinyl)-2-butene-2-sulfonamide], the figure is 18 nM; as for `COc1cccc(-c2nnc(NS(=O)(=O)/C(C)=C(\C)c3ncc(F)cn3)n2-c2c(OC)cccc2OC)n1` [Example 505.0, (2E)-N-(4-(2,6-dimethoxyphenyl)-5-(6-methoxy-2-pyridinyl)-4H-1,2,4-triazol-3-yl)-3-(5-fluoro-2-pyrimidinyl)-2-butene-2-sulfonamide], 1.9 nM; as for `COc1cccc(OC)c1-n1c(NS(=O)(=O)[C@H](C)[C@@H](C)c2ncc(C)cn2)nnc1-c1cccnc1` [Example 585.0, (2R,3S)—N-(4-(2,6-dimethoxyphenyl)-5-(3-pyridinyl)-4H-1,2,4-triazol-3-yl)-3-(5-methyl-2-pyrimidinyl)-2-butanesulfonamide], 25 nM.
Turning to `COc1cccc(OC)c1-n1c(NS(=O)(=O)[C@@H](C)[C@H](OC)c2ncc(Cl)cn2)nnc1-c1cccnc1` [Example 591.0, (1R,2S)-1-(5-chloro-2-pyrimidinyl)-N-(4-(2,6-dimethoxyphenyl)-5-(3-pyridinyl)-4H-1,2,4-triazol-3-yl)-1-methoxy-2-propanesulfonamide], the 50% effective concentration (EC50) was found to be 0.21 nM.
As for `COc1cccc(OC)c1-n1c(NS(=O)(=O)[C@H](C)[C@@H](OC)c2ncc(Cl)cn2)nnc1-c1cccnc1` [Example 592.0, (1S,2R)-1-(5-chloro-2-pyrimidinyl)-N-(4-(2,6-dimethoxyphenyl)-5-(3-pyridinyl)-4H-1,2,4-triazol-3-yl)-1-methoxy-2-propanesulfonamide], the figure is 10 nM; as for `CCO[C@H](c1ncc(Cl)cn1)[C@H](C)S(=O)(=O)Nc1nnc(-c2cncc(C)c2)n1-c1c(OC)cccc1OC` [Example 610.0, (1R,2S)-1-(5-chloro-2-pyrimidinyl)-N-(4-(2,6-dimethoxyphenyl)-5-(5-methyl-3-pyridinyl)-4H-1,2,4-triazol-3-yl)-1-ethoxy-2-propanesulfonamide], 0.3 nM.
Regarding `COc1cccc(OC)c1-n1c(NS(=O)(=O)[C@H](C)[C@@H](O)c2cnc(C)cn2)nnc1-c1cccnc1` [Example 614.0, (1S,2R)—N-(4-(2,6-dimethoxyphenyl)-5-(3-pyridinyl)-4H-1,2,4-triazol-3-yl)-1-hydroxy-1-(5-methyl-2-pyrazinyl)-2-propanesulfonamide], the concentration giving a half-maximal response (EC50) worked out at 1.7 nM.
As for `COc1cccc(OC)c1-n1c(NS(=O)(=O)[C@@H](C)[C@H](O)c2cnc(C)cn2)nnc1-c1cccnc1` [Example 615.0, (1R,2S)—N-(4-(2,6-dimethoxyphenyl)-5-(3-pyridinyl)-4H-1,2,4-triazol-3-yl)-1-hydroxy-1-(5-methyl-2-pyrazinyl)-2-propanesulfonamide], the figure is 65 nM; as for `COc1cccc(OC)c1-n1c(NS(=O)(=O)[C@@H](C)[C@H](O)c2ncc(C)cn2)nnc1-c1cccnc1` [Example 616.0, (1R,2S)—N-(4-(2,6-dimethoxyphenyl)-5-(pyridin-3-yl)-4H-1,2,4-triazol-3-yl)-1-hydroxy-1-(5-methylpyrimidin-2-yl)propane-2-sulfonamide], 0.46 nM; as for `COc1cccc(OC)c1-n1c(NS(=O)(=O)CCc2ccc(F)cc2C#N)nnc1-c1cncc(C)c1` [Example 621.0, 2-(2-cyano-4-fluorophenyl)-N-(4-(2,6-dimethoxyphenyl)-5-(5-methyl-3-pyridinyl)-4H-1,2,4-triazol-3-yl)ethanesulfonamide], 0.84 nM.
The result for `COc1ncnc(OC)c1-n1c(NS(=O)(=O)[C@@H](C)[C@H](OC)c2ncc(C)cn2)nnc1-c1ccccn1` [Example 628.0, (1R,2S)-N-(4-(4,6-dimethoxy-5-pyrimidinyl)-5-(2-pyridinyl)-4H-1,2,4-triazol-3-yl)-1-methoxy-1-(5-methyl-2-pyrimidinyl)-2-propanesulfonamide] reads 6.5 nM; that for `COc1cccc(OC)c1-n1c(NS(=O)(=O)[C@@H](C)[C@H](OC)c2ncc(C)cn2)nnc1-c1ccccn1` [Example 629.0, (1R,2S)-N-(4-(2,6-dimethoxyphenyl)-5-(2-pyridinyl)-4H-1,2,4-triazol-3-yl)-1-methoxy-1-(5-methyl-2-pyrimidinyl)-2-propanesulfonamide], 1.6 nM.
